Test results published in patent US11590115B2, “Pseudomonas strains and their metabolites to control fish diseases” (T3 BIOSCIENCE, LLC, priority 2020, dated 2023).
Converted amounts (≈) assume the structure as drawn. Read-outs that look alike come from different tables or passages of the source.

Key:
Aeromonas salmonicida = assay: MIC determination in broth, 96 well plates (OD600 and plating); assay type: cell-based; details: Aeromonas salmonicida (furunculosis), (TSA/TSB)/20° C.
Streptococcus agalactiae = assay: as above; assay type: cell-based; details: Streptococcus agalactiae (streptococcosis), (TSAY/TSBY)/28° C.
Streptococcus iniae = assay: as above; assay type: cell-based; details: Streptococcus iniae (streptococcosis), (TSAY/TSBY)/28° C.
Tenacibaculum maritimum = assay: as above; assay type: cell-based; details: Tenacibaculum maritimum (tenacibaculosis), (MA/MB)/15° C.
Saprolegnia parasitica = assay: Minimum lethal concentration (MLC) determination; assay type: cell-based; details: Saprolegnia parasitica (saprolegniasis); GY/20° C.; in triplicate
Vibrio parahaemolyticus = assay: MIC determination in broth, 96 well plates (OD600 and plating)

CSC1=C(C)C(=O)C(=O)NC1=O [RejuAgro A]
MIC (Aeromonas salmonicida): 1.56 µg/mL (≈ 8.42 µM) | MIC (Aeromonas salmonicida; read-out: MIC): 1.56 µg/mL (≈ 8.42 µM) | MIC (Streptococcus agalactiae): 1.56 µg/mL (≈ 8.42 µM) | MIC (Streptococcus agalactiae; read-out: MIC): 1.56 µg/mL (≈ 8.42 µM) | MIC (Streptococcus iniae): 3.13 µg/mL (≈ 16.9 µM) | MIC (Streptococcus iniae; read-out: MIC): 3.13 µg/mL (≈ 16.9 µM) | MIC (Tenacibaculum maritimum): 12.5 µg/mL (≈ 67.5 µM) | MIC (Tenacibaculum maritimum; read-out: MIC): 12.5 µg/mL (≈ 67.5 µM) | MLC (minimum lethal concentration) (Saprolegnia parasitica): 100 µg/mL (≈ 540 µM) | MIC (Vibrio parahaemolyticus; Vibrio parahaemolyticus): 0.39 µg/mL (≈ 2.11 µM) | MIC (Vibrio parahaemolyticus; Vibrio parahaemolyticus (vibriosis, acute hepatopancreatic necrosis disease), (TSA2/TSB2)/37° C.): 0.39 µg/mL (≈ 2.11 µM)
